The source of these data is patent US8592576B2, “Unsymmetrical pyrrolobenzodiazepine-dimers for treatment of proliferative diseases” (Spirogen Sarl, priority 2008, dated 2013).

pIC50: −log10 of the molar value.

Experiment [1] deals with K562 human chronic myeloid leukaemia cells. Nature of the experiment: K562 assay, in vitro cytotoxicity (MTT). Format: cell-based. The note with it: drug incubation 1 hour or 96 hours (not specified which), dose reducing final optical density to 50% of control. The procedure: (§1) Determination of In Vitro Cytotoxicity
K562 human chronic myeloid leukaemia cells were maintained in RPM1 1640 medium supplemented with 10% fetal calf serum and 2 mM glutamine at 37° C. in a humidified atmosphere containing 5% CO2 and were incubated with a specified dose of drug for 1 hour or 96 hours at 37° C. in the dark. The incubation was terminated by centrifugation (5 min, 300 g) and the cells were washed once with drug-free medium. Following the appropriate drug treatment, the cells were transferred to 96-well microtiter plates (10^4 cells per well, 8 wells per sample). Plates were then kept in the dark at 37° C. in a humidified atmosphere containing 5% CO2. The assay is based on the ability of viable cells to reduce a yellow soluble tetrazolium salt, 3-(4,5-dimethylthiazol-2-yl)-2,5-diphenyl-2H-tetrazolium bromide (MTT, Aldrich-Sigma), to an insoluble purple formazan precipitate. Following incubation of the plates for 4 days (to allow control cells to increase in number by approximately 10 fold), 20 μL of MTT solution (5 mg/mL in phosphate-buffered saline) was added to each well and the plates further incubated for 5 h. […] The optical density was then read at a wavelength of 550 nm on a Titertek Multiscan ELISA plate reader, and a dose-response curve was constructed. […]

Experiment [2] deals with A2780 parental cell line. Nature of the experiment: A2780 assay, in vitro cytotoxicity (MTT). Format: cell-based. The note with it: Homo sapiens, A2780 cells, 72 hours incubation, absorbance 540 nm. The procedure: as §1
A2780 parental cell line was grown in Dulbecco's Modified Eagles' Media (DMEM) containing ˜10% Foetal Calf Serum (FCS) and ˜1% 200 mM L-Glutamine solution and grown in Corning Cellbind 75 cm^2 flasks.
190 μl cell suspension was added (at 1×10^4) to each well of columns 2 to 11 of a 96 well plate (Nunc 96F flat bottom TC plate). 190 μl of media was added to each well of columns 1 and 12. The media was Dulbecco's Modified Eagles' Media (DMEM) (which included ˜10% Foetal Calf Serum (FCS) and ˜1% 200 mM L-Glutamine solution).
Plates were incubated overnight at 37° C. before addition of drug if cells were adherent. 200 μM of the test compound solutions (in 100% DMSO) were serially diluted across a 96 well plate. Each resulting point was then further diluted 1/10 into sterile distilled water (SDW).
To the cell negative blanks and compound negative control wells, 10% DMSO was added at 5% v/v. Assay plates were incubated for the following durations at 37° C. in 5% CO2 in a humidified incubator for 72 hours. Following incubation, MTT solution to a final concentration of […] was added to each well. Plates were then incubated for a further 4 hours at 37° C. in 5% CO2 in a humidified incubator. […]
Plates were read at 540 nm absorbance using an Envision plate reader. Data was analysed using Microsoft Excel and GraphPad Prism and IC50 values obtained.

As usually defined, the pIC50 is −log10 of the IC50, conventionally taken in molar units. For the compound `COc1ccc(C2=CN3C(=O)c4cc(OC)c(OCCCCCOc5cc6c(cc5OC)C(=O)N5C=C(c7ccc(N)cc7)C[C@H]5C=N6)cc4N=C[C@@H]3C2)cc1` [Compound 13, (S)-2-(4-aminophenyl)-7-methoxy-8-(5-((S)-7-methoxy-2-(4-methoxyphenyl)-5-oxo-5,11a-dihydro-1H-pyrrolo[2,1-c][1,4]benzodiazepine-8-yloxy)pentyloxy)-1H-pyrrolo[2,1-c][1,4]benzodiazepine-5(11aH)-one], the negative-log IC50 (pIC50) in experiment [1] is 4.52.

In the case of `COc1ccc(C2=CN3C(=O)c4cc(OC)c(OCCCOc5cc6c(cc5OC)C(=O)N5C=C(c7ccc(N)cc7)C[C@H]5C=N6)cc4N=C[C@@H]3C2)cc1` [Compound 11, (S)-2-(4-aminophenyl)-7-methoxy-8-(3-((S)-7-methoxy-2-(4-methoxyphenyl)-5-oxo-5,11a-dihydro-1H-pyrrolo[2,1-c][1,4]benzodiazepine-8-yloxy)propoxy)-1H-pyrrolo[2,1-c][1,4]benzodiazepine-5(11aH)-one], in experiment [2], the negative logarithm of the IC50 (pIC50) is 4.93.
